Experimental findings from ChEMBL document CHEMBL3774329, “Synthesis and Evaluation of Oxyguanidine Analogues of the Cysteine Protease Inhibitor WRR-483 against Cruzain” (ACS Med Chem Lett, 2016) are described below.

For data set [1], the target named is Cruzipain (Trypanosoma cruzi) (UniProt P25779). Nature of the data set: Ratio of Kinact/Ki at pH 8 to Kinact/Ki at pH 5.5 for inhibition of His-tagged recombinant Trypanosoma cruzi cruzain.
For data set [2] the target is unchanged. Nature of the data set: Inhibition of His-tagged recombinant Trypanosoma cruzi cruzain using Z-Phe-Arg-AMC as substrate assessed as ratio of Kinact to Ki preincubated for 5 mins at pH 5.5 by spectrofluorometric analysis.
Data set [3] has the same target. As to the kind of experiment: Inhibition of His-tagged recombinant Trypanosoma cruzi cruzain using Z-Phe-Arg-AMC as substrate assessed as ratio of Kinact to Ki preincubated for 5 mins at pH 8 by spectrofluorometric analysis.
A further data set concerns the target Cytochrome P450 2D6 (Homo sapiens, UniProt P10635). Nature of the data set: Inhibition of CYP2D6 in human liver microsomes at 1 to 10 uM after 10 mins in presence of NADPH. The format is ADME. (Liver microsomes are vesicles of endoplasmic reticulum, rich in cytochrome P450 enzymes.)
For data set [4], the target named is Cruzipain (Trypanosoma cruzi) (UniProt P25779). As to the kind of experiment: Ratio of Kinact/Ki at pH 5.5 to Kinact/Ki at pH 8 for inhibition of His-tagged recombinant Trypanosoma cruzi cruzain.
Data set [5] concerns Rattus norvegicus. Nature of the data set: Drug level in Sprague-Dawley rat treated with WRR-668 at 3 mg/kg, iv over 8 hrs by LC-MS/MS analysis. Conditions: in vivo. Type of data set: ADME, organism-based.
The target in data set [6] is T1, Cysteine proteinase 1 (Entamoeba histolytica) (UniProt Q01957).
T1 sequence (whole entry): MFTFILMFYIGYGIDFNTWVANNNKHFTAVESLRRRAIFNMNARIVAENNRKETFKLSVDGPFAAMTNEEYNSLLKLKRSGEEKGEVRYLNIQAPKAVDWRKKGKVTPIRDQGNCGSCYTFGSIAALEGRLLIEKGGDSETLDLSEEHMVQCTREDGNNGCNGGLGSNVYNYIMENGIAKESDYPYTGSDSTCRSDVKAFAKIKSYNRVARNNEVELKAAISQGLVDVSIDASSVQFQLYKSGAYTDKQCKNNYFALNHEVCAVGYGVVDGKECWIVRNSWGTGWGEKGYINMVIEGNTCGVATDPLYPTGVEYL
As to the kind of experiment: Inhibition of Entamoeba histolytica cysteine protease1 using ZRR-AMC peptide as substrate assessed as release of AMC at 250 pM to 1 uM incubated for 15 mins by fluorometric analysis.

Data set [7] has as its system Liver microsome. Nature of the data set: Stability of compound in rat liver microsomes at 1 uM measured at 5 to 60 mins in presence of NADPH by LC-MS/MS analysis. Type of data set: ADME.
In data set [8] the test system is Rattus norvegicus. As to the kind of experiment: Drug metabolism in Sprague-Dawley rat assessed as WRR-671 formation at 3 mg/kg, iv over 8 hrs by LC-MS/MS analysis. Type of data set: ADME, organism-based. Conditions: in vivo.
Data set [9] is described as follows: Stability of compound in mouse liver microsomes at 1 uM measured at 5 to 60 mins in presence of NADPH by LC-MS/MS analysis. Type of data set: ADME.
Data set [10] deals with Liver microsome. Nature of the data set: Stability of compound in human liver microsomes at 1 uM measured at 5 to 60 mins in presence of NADPH by LC-MS/MS analysis. Type of data set: ADME.
The next data set relates to Trypanosoma cruzi. Nature of the data set: Antiparasitic activity against Trypanosoma cruzi CA-I/72 trypomastigote infected in mouse C2C12 cells after 72 hrs by DAPI-staining based microscopic analysis. Type of data set: functional, organism-based. The note with it: CA-I/72, C2C12, 72 h.
For the next data set, the system named is Plasma. Nature of the data set: Drug degradation in C57BL/6 mouse plasma assessed as proteolytic cleavage in presence of EDTA by LC-MS/MS analysis. The format is ADME, cell-free.
A further data set has as its target Cytochrome P450 2C9 (Homo sapiens, UniProt P11712). As to the kind of experiment: Inhibition of CYP2C9 in human liver microsomes at 1 to 10 uM after 10 mins in presence of NADPH. The format is ADME.

SMILES strings stand for the structures. Activity calls are given as the source filed them. No cut-off for these calls is given here.

Chain of Cruzipain (Trypanosoma cruzi) (P25779 123-467 limits assumed): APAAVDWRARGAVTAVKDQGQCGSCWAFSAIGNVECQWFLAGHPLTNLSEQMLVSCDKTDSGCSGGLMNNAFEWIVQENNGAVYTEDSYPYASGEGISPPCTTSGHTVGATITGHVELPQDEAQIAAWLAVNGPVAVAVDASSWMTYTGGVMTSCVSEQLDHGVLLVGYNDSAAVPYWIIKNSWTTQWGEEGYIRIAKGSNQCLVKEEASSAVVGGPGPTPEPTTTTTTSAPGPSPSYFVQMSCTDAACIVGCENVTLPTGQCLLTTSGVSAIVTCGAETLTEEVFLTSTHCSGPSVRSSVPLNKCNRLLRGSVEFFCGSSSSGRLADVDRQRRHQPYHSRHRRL
Chain of Cytochrome P450 2D6 (P10635 whole entry): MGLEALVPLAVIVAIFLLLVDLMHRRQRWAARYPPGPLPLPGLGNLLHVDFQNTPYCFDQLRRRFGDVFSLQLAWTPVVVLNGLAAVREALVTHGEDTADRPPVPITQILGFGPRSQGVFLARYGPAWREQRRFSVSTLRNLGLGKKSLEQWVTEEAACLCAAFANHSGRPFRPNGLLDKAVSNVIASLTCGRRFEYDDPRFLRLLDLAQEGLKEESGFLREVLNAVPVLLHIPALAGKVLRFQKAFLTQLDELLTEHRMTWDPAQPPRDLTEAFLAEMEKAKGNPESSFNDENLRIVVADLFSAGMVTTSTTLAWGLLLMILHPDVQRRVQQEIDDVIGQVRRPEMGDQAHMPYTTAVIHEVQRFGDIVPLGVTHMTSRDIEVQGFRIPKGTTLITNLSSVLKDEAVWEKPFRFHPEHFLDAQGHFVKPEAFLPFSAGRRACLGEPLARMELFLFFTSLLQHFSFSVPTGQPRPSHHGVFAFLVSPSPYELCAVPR
Chain of Cytochrome P450 2C9 (P11712 whole entry): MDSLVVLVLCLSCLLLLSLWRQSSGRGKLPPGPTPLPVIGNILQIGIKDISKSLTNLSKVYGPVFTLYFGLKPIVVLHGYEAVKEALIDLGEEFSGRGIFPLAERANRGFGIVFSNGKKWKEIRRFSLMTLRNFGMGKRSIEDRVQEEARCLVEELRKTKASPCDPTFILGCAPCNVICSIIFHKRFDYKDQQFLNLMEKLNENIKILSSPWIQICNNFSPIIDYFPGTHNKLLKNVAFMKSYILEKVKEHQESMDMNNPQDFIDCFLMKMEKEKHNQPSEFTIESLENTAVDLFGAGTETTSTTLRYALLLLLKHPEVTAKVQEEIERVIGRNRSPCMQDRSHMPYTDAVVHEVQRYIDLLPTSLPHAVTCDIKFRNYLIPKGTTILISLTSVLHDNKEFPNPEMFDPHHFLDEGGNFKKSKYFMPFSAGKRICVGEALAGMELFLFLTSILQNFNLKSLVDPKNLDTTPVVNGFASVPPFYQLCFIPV

Consider `CN1CCN(C(=O)N[C@@H](CCCNC(=N)N)C(=O)N[C@H](/C=C/S(=O)(=O)c2ccccc2)CCc2ccccc2)CC1`, for which the Ratio in [1] was > 3; in data set [2] it was 36600 M⁻¹ s⁻¹; in data set [3], 113000 M⁻¹ s⁻¹.

Turning to `CN1CCN(C(=O)N[C@@H](CCCONC(=N)N)C(=O)N[C@H](/C=C/S(=O)(=O)c2ccccc2)CCc2ccccc2)CC1.Cl.Cl`, the “inhibition (INH)” value at Cytochrome P450 2D6 is “Active”. For the same molecule, the Ratio was 43300 M⁻¹ s⁻¹ in data set [2] and 53400 M⁻¹ s⁻¹ in data set [3].

For the molecule `CN1CCN(C(=O)N[C@@H](CCCONC(=N)N)C(=O)N[C@H](/C=C/S(=O)(=O)c2ncccn2)CCc2ccccc2)CC1`, the Ratio in [2] is 320000 M⁻¹ s⁻¹; in data set [3] it was 1500 M⁻¹ s⁻¹; in data set [4], > 5.

For the molecule `CN1CCN(C(=O)N[C@@H](CCCO)C(=O)N[C@H](/C=C/S(=O)(=O)c2ccccc2)CCc2ccccc2)CC1`, the Drug metabolism entry in the data set on Rattus norvegicus [5] is “metabolite_detected”.

With `CN1CCN(C(=O)N[C@@H](CCCNC(=N)N)C(=O)N[C@H](/C=C/S(=O)(=O)c2ccccn2)CCc2ccccc2)CC1`, the values for the Ratio in data set [2] and in data set [3] were 8100 M⁻¹ s⁻¹ and 3100 M⁻¹ s⁻¹, respectively. In data set [6], the inhibition result is “Active”.

On to `CN1CCN(C(=O)N[C@@H](CCCONC(=N)N)C(=O)N[C@H](/C=C/S(=O)(=O)c2ccccn2)CCc2ccccc2)CC1`, for which the “inhibition (INH)” value at Cytochrome P450 2D6 is “Active”. For the same molecule, the Ratio in [2] stood at 214000 M⁻¹ s⁻¹; in [3], 308000 M⁻¹ s⁻¹. Moreover, the Stability result (with Liver microsome [7]; in data set [9]; in the data set with Liver microsome [10]) was “Stable” each time. Moreover, in the data set with Rattus norvegicus [8], the Drug metabolism result is given as “metabolite_detected”. For the same molecule, the inhibition result in [6] was “Active”.

In the case of `CN1CCN(C(=O)N[C@@H](Cc2ccccc2)C(=O)N[C@H](/C=C/S(=O)(=O)c2ccccc2)CCc2ccccc2)CC1`, the values for the Ratio in data set [2], in [3] and in data set [4] were 158000 M⁻¹ s⁻¹, 32500 M⁻¹ s⁻¹ and > 5, respectively.

With `CN1CCN(C(=O)N[C@@H](CCCCNC(=N)N)C(=O)N[C@H](/C=C/S(=O)(=O)c2ccccc2)CCc2ccccc2)CC1`, the Ratio in [1] was > 3; in [2], 11000 M⁻¹ s⁻¹; in data set [3], 59700 M⁻¹ s⁻¹.

Consider `CONC(=N)NCCC[C@H](NC(=O)N1CCN(C)CC1)C(=O)N[C@H](/C=C/S(=O)(=O)c1ccccc1)CCc1ccccc1`, for which the Ratio in [1] is > 3; in data set [2], 9100 M⁻¹ s⁻¹; in data set [3], 65700 M⁻¹ s⁻¹. Also, the “inhibition (INH)” value on Cytochrome P450 2D6 is “Active”. In addition, the half-maximal effective concentration (EC50) (usually the midpoint of the concentration-response curve) in the data set with Trypanosoma cruzi was found to be 269 nM.

With `CONC(=N)NCCC[C@H](NC(=O)N1CCN(C)CC1)C(=O)N[C@H](/C=C/S(=O)(=O)c1ccccn1)CCc1ccccc1`, the Ratio is > 3 in data set [1], 25000 M⁻¹ s⁻¹ in data set [2] and 1.17e+06 M⁻¹ s⁻¹ in data set [3]. For the same molecule, the “inhibition (INH)” value at Cytochrome P450 2D6 and on Cytochrome P450 2C9 was “Active” in each case. Moreover, the Stability result is on record as “Unstable” with Plasma, “Stable” in the data set on Liver microsome [7], “Stable” in data set [9] and “Stable” in the data set on Liver microsome [10]. In addition, the inhibition result in data set [6] is “Active”.

For `CN1CCN(C(=O)N[C@@H](CCONC(=N)N)C(=O)N[C@H](/C=C/S(=O)(=O)c2ccccc2)CCc2ccccc2)CC1`, the Ratio is 93100 M⁻¹ s⁻¹ in [2] and 138000 M⁻¹ s⁻¹ in data set [3].
